Assay [1] concerns the target T1, VlmD (Streptomyces viridifaciens, UniProt Q84F32).
T1 construct: N-terminal His6 tag, codon-optimised gene in pET-22b(+), E. coli BL21(DE3), Talon resin
Briefly: HPLC (OPA derivatization) of iso-butylamine formed; LC-MS confirmation. In kind it is biochemical. The following applies: 1 mM substrate, 0.1 mM PLP, 150 ug/mL enzyme, 50 mM potassium phosphate pH 7.5, 37 °C, 2 h.

Assay [2] has as its target T1, VlmD. Briefly: HPLC (OPA derivatization) of n-butylamine formed; LC-MS confirmation. Format: biochemical. Particulars: 1 mM substrate, 0.1 mM PLP, 150 ug/mL enzyme, 50 mM potassium phosphate pH 7.5, 37 °C, 2 h.

T1 sequence (Q84F32 entry or part of it): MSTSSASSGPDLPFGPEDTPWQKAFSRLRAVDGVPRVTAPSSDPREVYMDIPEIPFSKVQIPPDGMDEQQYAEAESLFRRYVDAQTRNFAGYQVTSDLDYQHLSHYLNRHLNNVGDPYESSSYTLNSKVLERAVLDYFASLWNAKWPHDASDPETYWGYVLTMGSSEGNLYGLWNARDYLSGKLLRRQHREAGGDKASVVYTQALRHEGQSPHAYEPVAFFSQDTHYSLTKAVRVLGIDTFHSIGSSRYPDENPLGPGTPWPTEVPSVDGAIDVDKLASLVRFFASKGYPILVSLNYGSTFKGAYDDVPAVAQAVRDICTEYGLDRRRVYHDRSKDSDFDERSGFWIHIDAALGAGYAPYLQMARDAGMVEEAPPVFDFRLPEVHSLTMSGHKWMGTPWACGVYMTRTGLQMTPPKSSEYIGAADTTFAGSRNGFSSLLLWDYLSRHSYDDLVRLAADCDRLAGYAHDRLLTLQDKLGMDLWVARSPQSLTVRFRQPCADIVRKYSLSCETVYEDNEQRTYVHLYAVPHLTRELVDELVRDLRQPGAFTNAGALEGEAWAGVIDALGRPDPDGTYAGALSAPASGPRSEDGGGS

As for `CC(C)[C@H](N)C(=O)O` [L-valine], the “HPLC (OPA derivatization) of iso-butylamine formed; LC-MS confirmation” value at VlmD [1] was “VlmD consistently showed activities toward L-valine, L-leucine, and L-isoleucine as in the previous study”.

In the case of `CCC[C@H](N)C(=O)O` [L-norvaline], the “HPLC (OPA derivatization) of n-butylamine formed; LC-MS confirmation” value on VlmD [2] is recorded as “VlmD showed relatively high activity toward L-2-aminobutyrate, L-norvaline, L-valine”.

The record behind these values is PMC7794544, “Microbial production of multiple short-chain primary amines via retrobiosynthesis” (Nature Communications, 2021).
